Earlier results on one molecule are cited in US8680293B2, “Substituted CC-1065 analogs and their conjugates” (Syntarga B.V., priority 2007, dated 2014).

The conditions of this series: reason it could not be used in the clinic.

With `COc1c(O)c2c(c3cc(C(=O)N4CCc5c4c(O)c(OC)c4[nH]c(C(=O)N6CC7CC78C6=CC(=O)c6[nH]cc(C)c68)cc54)[nH]c13)CCN2C(N)=O` (stereo not shown) [CC-1065], the hepatotoxicity result is “serious delayed hepatotoxicity”.
